Assay results reported in patent publication US20210228660A1, “USE OF PROTEASOME INHIBITOR AND […] PREPARATION OF ANTI-TUMOR MEDICAMENT” (GUANGZHOU VIROTECH PHARMACEUTICAL CO., LTD., priority 2018, published 2021).

What was measured:
Format in all cases: cell-based
[1] = test system: human hepatocellular carcinoma Huh 7; experiment: MTT cell viability, Bortezomib and M1 virus, 48 h; conditions: Huh-7, 48 h, read-out: relative cell viability of tumor cells
Method: (§1) a) Inoculating cells, and drug administering treatment: cells in the logarithmic growth phase and the DMEM complete culture medium (containing 10% fetal bovine serum and 1% double antibody) were selected to prepare cell suspension, and were inoculated in a 96-well culture plate at a density of 4×10^3/well. 12 h later, the cells were completely adhered to the wall. The cells were divided into control group without medicament nor virus treatment, Bortezomib treatment group, M1 infection group and Bortezomib/M1 combined group.
b) MTT reacted with intracellular succinate dehydrogenase: after culturing for 48 h, 20 μl (5 mg/ml) of MTT was added to each well and incubated for 4 h, at this time, the granular bluish violet formazan crystals formed in living cells could be observed under microscope.
(§2) c) Dissolving formazan granules: the supernatant was carefully removed, DMSO 100 μl/well was added to dissolve the crystal, shaked in a microoscillator for 5 min, and then detect the optical density (OD value) of each well with wavelength of 570 nm on the enzyme-linked detector. The experiment was repeated for 3 times in each group. Cell viability=OD value of medicament treatment group/OD value of control group×100%.
The EC50 shift of the two curves was calculated, that is, the EC50 shift in FIG. 2, the larger the difference value was, the more significant the medicament synergized.

[2] = test system: human hepatocellular carcinoma Hep3B; experiment: Cell morphology observation under phase contrast microscope, Hep3B; conditions: 48 h, Bortezomib 5 nM, M1 virus 0.001 moi, FIG. 1
Method: (§3) a) Cell culture: human hepatocellular carcinoma Hep3B and Huh 7 were grown in DMEM complete medium containing 10% FBS, 100 U/ml penicillin and 0.1 mg/ml streptomycin; all cell strains were cultured and passaged in a closed incubator at a constant temperature of 37° C. (95% relative humidity) with 5% CO2, and the growth was observed under inverted microscope. The cells were passaged about every 2 to 3 days, and the cells in the logarithmic phase were used in the formal experiment.
(§4) b) Cell treatment and morphological observation: cells in the logarithmic growth phase and the DMEM complete culture medium (containing 10% fetal bovine serum and 1% double antibody) were selected to prepare cell suspension, and the cells were inoculated in a 24-well culture plate at a density of 2.5×10^4/well.

[3] = test system: human hepatocellular carcinoma Huh 7; experiment: Cell morphology observation under phase contrast microscope, Huh 7; conditions: 48 h, Bortezomib 5 nM, M1 virus 0.1 moi, FIG. 1
Method: as §3, §4

[4] = test system: human hepatocellular carcinoma Huh 7; experiment: MTT cell viability, various proteasome inhibitors and M1 virus, 72 h
Method: as §1, with “proteasome inhibitor group (including CEP-18770, MLN-9708, ONX-0912),” for “Bortezomib treatment group,”, “infected” for “infection”, “proteasome inhibitor/M1” for “Bortezomib/M1”
b) MTT reacted with intracellular succinate dehydrogenase: after culturing for 72 h, 20 μl (5 mg/ml) of MTT was added to each well and incubated for 4 h, at this time, the granular bluish violet formazan crystals formed in living cells could be observed under microscope.
as §2, with “vibrate” for “shaked”, “detector.” for “detector. The experiment was repeated for 3 times in each group.”, “group x 100%.” for “group×100%.”

[5] = Homo sapiens, Huh-7, 72 h, read-out: relative cell viability of tumor cells

CC(C)C[C@H](NC(=O)[C@H](Cc1ccccc1)NC(=O)c1cnccn1)B(O)O [Bortezomib]
viability at 0.005 µM [1]: 99.7%
morphological changes of cells [2]: no significant change in cell morphology
morphological changes of cells [3]: no significant change in cell morphology

CC(C)C[C@H](NC(=O)[C@@H](NC(=O)c1cccc(-c2ccccc2)n1)[C@@H](C)O)B(O)O [CEP-18770, Delanzomib]
viability at 0.005 µM [4, 5]: 105%

COC[C@H](NC(=O)c1cnc(C)s1)C(=O)N[C@@H](COC)C(=O)N[C@@H](Cc1ccccc1)C(=O)[C@@]1(C)CO1 [ONX-0912, Oprozomib]
viability at 0.05 µM [4, 5]: 70%

Ixazomib [MLN-9708]
relative cell viability of tumor cells ([4]; FIG. 4B, Huh 7, MTT, 72 h, MLN-9708 5 nM, M1 virus MOI=0.1): 77.7%
